Laboratory results from ChEMBL document CHEMBL4622935, “Novel anticancer drug curaxin CBL0137 impairs DNA methylation by eukaryotic DNA methyltransferase Dnmt3a” (Bioorg Med Chem Lett, 2020).

Legend:
[1] = biological target: DNA (cytosine-5)-methyltransferase 3A (Mus musculus) (UniProt O88508); assay: Inhibition of murine DNMT3A catalytic domain-mediated DNA methylation using 5'-6FAM-tagged 30-mer duplex DNA (17 AT bp) as substrate at 60 uM preincubated for 30 mins followed by enzyme addition relative to control
[2] = biological target: T1, DNA (cytosine-5)-methyltransferase 3A (Mus musculus, UniProt O88508); assay: Inhibition of murine DNMT3A catalytic domain-mediated DNA methylation using 5'-6FAM-tagged 30-mer duplex DNA (17 AT bp) as substrate preincubated for 30 mins followed by enzyme addition
[3] = biological target: DNA (cytosine-5)-methyltransferase 3A (Mus musculus) (UniProt O88508); assay: Inhibition of murine DNMT3A catalytic domain-mediated DNA methylation using 5'-6FAM-tagged 30-mer duplex DNA (22 AT bp) as substrate at 60 uM preincubated for 30 mins followed by enzyme addition relative to control
DNA [4] = assay: Binding affinity to 5'-6FAM-tagged 30-mer duplex DNA (22 AT bp) (unknown origin) assessed as dissociation constant for complound-DNA complex by fluorescence polarization assay; type: nucleic-acid assay
[5] = biological target: T1, DNA (cytosine-5)-methyltransferase 3A; assay: Inhibition of murine DNMT3A catalytic domain-mediated DNA methylation using 5'-6FAM-tagged 30-mer duplex DNA (22 AT bp) as substrate preincubated for 30 mins followed by enzyme addition
DNA [6] = assay: Binding affinity to 5'-6FAM-tagged 30-mer duplex DNA (17 AT bp) (unknown origin) assessed as dissociation constant for complound-DNA complex by fluorescence polarization assay; type: nucleic-acid assay
[7] = biological target: DNA (cytosine-5)-methyltransferase 3A (Mus musculus) (UniProt O88508); assay: Binding affinity to murine DNMT3A catalytic domain assessed as fold reduction in compound fluorescence at 5 uM by dialysis method relative to control
[8] = biological target: DNA (cytosine-5)-methyltransferase 3A (Homo sapiens, UniProt Q9Y6K1); assay: Binding affinity to DNMT3A catalytic domain (unknown origin) assessed as inhibition of enzyme-mediated DNA methylation preincubated for 1 hr followed by enzyme addition measured after 1 hr in presence of AdoMet by PAGE analysis
DNA (cytosine-5)-methyltransferase 3A (Homo sapiens, UniProt Q9Y6K1), sequence (Q9Y6K1 whole entry, looked up, the tested form may be a part): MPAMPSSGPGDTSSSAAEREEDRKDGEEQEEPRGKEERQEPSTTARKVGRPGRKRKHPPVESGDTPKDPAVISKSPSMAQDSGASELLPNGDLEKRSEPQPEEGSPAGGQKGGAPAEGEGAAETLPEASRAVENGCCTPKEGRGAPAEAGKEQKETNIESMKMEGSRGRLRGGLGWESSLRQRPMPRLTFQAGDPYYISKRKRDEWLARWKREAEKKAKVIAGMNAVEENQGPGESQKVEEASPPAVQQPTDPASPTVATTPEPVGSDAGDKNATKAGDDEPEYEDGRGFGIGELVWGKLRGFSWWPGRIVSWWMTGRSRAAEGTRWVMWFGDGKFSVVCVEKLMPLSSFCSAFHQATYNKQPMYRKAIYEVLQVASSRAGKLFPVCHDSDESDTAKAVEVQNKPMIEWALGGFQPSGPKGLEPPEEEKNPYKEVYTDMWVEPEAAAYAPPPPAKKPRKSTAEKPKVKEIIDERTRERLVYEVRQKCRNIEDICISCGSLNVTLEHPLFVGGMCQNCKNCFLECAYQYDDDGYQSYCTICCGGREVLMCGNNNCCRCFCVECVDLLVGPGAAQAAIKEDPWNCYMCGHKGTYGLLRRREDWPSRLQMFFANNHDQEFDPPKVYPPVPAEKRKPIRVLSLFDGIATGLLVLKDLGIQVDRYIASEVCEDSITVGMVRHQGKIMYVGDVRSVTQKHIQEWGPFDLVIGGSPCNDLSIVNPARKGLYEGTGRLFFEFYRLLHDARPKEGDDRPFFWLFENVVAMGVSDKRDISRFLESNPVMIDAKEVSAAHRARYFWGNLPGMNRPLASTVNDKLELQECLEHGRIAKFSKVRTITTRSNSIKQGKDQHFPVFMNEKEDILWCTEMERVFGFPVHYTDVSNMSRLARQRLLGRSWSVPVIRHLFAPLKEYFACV

inhibition [1] [%] | IC50 [2] [µM] | inhibition [3] [%] | Kd (DNA [4]) [µM] | IC50 [5] [µM] | Kd (DNA [6]) [µM] | fold change (FC) [7] | Structure (SMILES) | IC50 [8] [µM]
70 | 3 | – | – | – | – | – | COc1cccc2c1C(=O)c1c(O)c3c(c(O)c1C2=O)C[C@@](O)(C(=O)CO)C[C@@H]3O[C@H]1C[C@H](N)[C@H](O)[C@H](C)O1 [DOXORUBICIN] | –
80 | 9 | 51 | 34 | 5 | 20 | 20 | CC(=O)c1ccc2c(c1)c1cc(C(C)=O)ccc1n2CCNC(C)C | –
– | – | – | – | – | – | – | CCC1/C=C/C=C/C[C@H](C)[C@@H](O)[C@](C)(O)C(=O)[C@@H](C)[C@H](O)[C@@H](C)C(=O)[C@H](C)[C@@H](O)[C@H](C)/C=C/C(=O)OC2[C@@H](C)C(CC1)OC1(CC[C@@H](C)C(C[C@H](C)O)O1)[C@@H]2C (stereo not given in full) | 6
